Data reported in patent US20050182128A1, “Use of anethole dithiolethione in lung cancer chemoprevention” (priority 2002, published 2005).

System: bronchial dysplasia
Assay: Phase IIb trial: nuclear morphometry index (MI) of bronchial biopsies
Type: in vivo, human
Source text: The primary outcome of the study was changes in the histopathology grade of the bronchial biopsies before and after six months of intervention. The secondary endpoint was changes in the nuclear morphometry index of the bronchial biopsies.
The method of quantitative nuclear morphometry had been described in detail previously (Lam et al., 1998; Doudkine et al., 1995; Garner et al., 1994). […] Morphometric measurements provide a more objective and reproducible means for the grading of bronchial biopsies than subjective assessment does. The device used to make these high-resolution quantitative morphometric measurements was a Cyto-Savant™ system (Lam et al., 1998; Doudkine et al., 1995; Garner et al., 1994). The images were interactively collected by an experienced cytotechnologist under the direction of a pathologist (JCL). The images were collected using a 20x objective with a numerical aperture of 0.75. Analysis of the nuclei in each tissue consisted of five steps 1) focusing the field of view, 2) automatically segmenting the nuclei in the field, 3) interactively correcting segmentation errors, 4) selecting and classifying the cell nuclei into the categories of basal, intermediate or superficial cells depending or their location within the biopsy where possible, and 5) automatically collecting individually focused images of each selected cell. Additionally, approximately 30 leukocytes were collected to normalize the images for sample to sample variations in staining intensity. On the average, greater than 100 cell nuclei were collected in this fashion for each of the biopsies. Using bulk nuclear features such as the total area and the total amount of light absorbed (which corresponds to the amount of DNA), shape features and descriptions of the distribution of stained DNA (texture features) (Doudkine et al., 1995), a scale was defined with normal nuclei defining one end and cancer-like nuclei defining the other. From the proportion of nuclei along this scale, a Morphometry Index (MI) was derived for each biopsy (Lam et al., 1998).
For quantitative nuclear morphometry, the median MI for histologically normal biopsies was 1.25. The inter-observer variation of measuring the MI was such that a change in MI greater than 0.11 (>2SD) was taken to be a significant change. For the lesion specific analysis, CR was defined as regression of a lesion with a MI of >1.36 to ≦1.36. PD was defined as increase in the MI from ≦1.36 to >1.36. On a participant by participant basis, CR was defined as regression of all sites with MI>1.36 to ≦1.36. PD was defined as progression of any site similar to that defined under the site by site analysis or appearance of new lesions with a MI of >1.36.
Descriptive statistics were used to summarize subject characteristics, and pathologic evaluations of the bronchial biopsy examinations. Comparison between treatment arms was done with the Mann-Whitney test for continuous variables such as age, smoking intensity (pack-years) and MI. Pearson's χ^2 test with continuity correction was used to compare categorical variables such as gender, smoking status (current versus former smokers) and response rates (progression and regression) in the two arms. Fisher's exact test was applied to the lower partial response and stable disease rates. All P values are two-sided. A two-sided P value of less than 0.05 was considered statistically significant.

COc1ccc(-c2cc(=S)ss2)cc1 [ADT, 5-(p-methoxyphenyl)-1,2-dithiole-3-thione]
PR rate, subject specific analysis, nuclear morphometry (6 months): 3% | Biopsies with MI >1.36 at 6 months (baseline MI >1.36, of 38): 9 | Biopsies with MI ≦1.36 at 6 months (baseline MI >1.36, of 38): 29 | CR rate, lesion specific analysis, nuclear morphometry (baseline MI >1.36 to ≦1.36 at 6 months, placebo 63%, P=0.37): 76% | Biopsies with MI >1.36 at 6 months (baseline MI ≦1.36, of 112): 27 | Biopsies with MI ≦1.36 at 6 months (baseline MI ≦1.36, of 112): 85 | PD rate, lesion specific analysis, nuclear morphometry (baseline MI ≦1.36 to >1.36 at 6 months, placebo 33%, P=0.22): 24% | CR, number of subjects, nuclear morphometry (of 29): 13 | PD, number of subjects, nuclear morphometry (of 29): 12 | PR, number of subjects, nuclear morphometry (of 29): 1 | PD rate, person specific analysis, nuclear morphometry (participants with MI>1.36 pre-treatment, placebo 60%, P=0.28): 41% | PD rate lower than placebo, nuclear morphometry (person specific, 41% versus 60%): 19% | CR rate higher than placebo, nuclear morphometry (person specific, 45% versus 24%): 21% | CR rate, person specific analysis, nuclear morphometry (placebo 24%, p=0.19): 45% | Biopsies with MI >1.36 at 6 months (total, of 150): 36 | Biopsies with MI ≦1.36 at 6 months (total, of 150): 114
